Literature values, collected in publication PMC4131438 (ACS chemical biology, 2014).

Assays:
[1] = BIM BH3 aa 146-166 template, staple at R154/E158 i, i+4

Row | binding to pro-apoptotic BAX (pro-apoptotic BAX; fluorescence polarization binding assays, aa 146-166 constructs) | binding to full-length BAX (pro-apoptotic BAX; aa 145-164 constructs) | Substance | α-helical content in solution [1] [%]
1 | no detectable BAX interaction |  | BIM BH3 peptide (aa 146-166): unmodified BIM BH3 peptide, amino acids 146-166 | 20
2 |  | negligible binding | BIM BH3 peptide (aa 145-164): unmodified BIM BH3 peptide composed of amino acids 145-164 | 
